Results published in patent publication US11890288B2, “Sulfonamide or sulfinamide compound having effect of inducing BRD4 protein degradation and pharmaceutical use thereof” (MITSUBISHI TANABE PHARMA CORPORATION, priority 2020, dated 2024).
pIC50: −log10 of the molar value.

Experiments:
[1] = tested on: human prostate cancer LNCaP cells; assay: Cytotoxic action on LNCaP cells (WST-8, 96 hr); format: cell-based; details: 96 hr culture
Summary of the method: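 Growth-inhibition format: 96 hr continuous exposure, 37° C, 5% CO2, 10% FBS/RPMI1640, WST-8 read-out. Values are IC50 against the untreated-control survival, taken from the line joining the two points around 50%.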

BRD4 protein = BRD4 protein (Homo sapiens (Human), UniProt O60885); assay: BRD4 protein degradation inducing action in LNCaP cells (immunofluorescence, 6 hr); format: cell-based; details: anti-BRD4 fluorescence intensity
Summary of the method: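 LNCaP cells in 10% FBS/RPMI1640 exposed to compound for 6 hr, fixed, permeabilized and immunostained for BRD4 with Alexa Fluor 546 secondary; fluorescence (ex 560, em 572 nm) read by imaging. DC50 = concentration giving 50% of untreated signal, interpolated linearly between the two bracketing points.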

DC50 (BRD4 protein) | Structure (SMILES) | pIC50 [1]
0.13 nM | COC(=O)C[C@@H]1N=C(c2ccc(-c3ccc(C(=O)N[C@H](C)c4ccc(S(=O)(=O)Nc5ccc(C)c6c(C#N)c[nH]c56)cc4)c(Cl)c3)cc2)c2c(sc(C)c2C)-n2c(C)nnc21 [Example 70, methyl [(6S)-4-(3′-chloro-4′-{[(1R)-1-{4-[(3-cyano-4-methyl-1H-indol-7-yl)sulfamoyl]phenyl}ethyl]carbamoyl}[1,1′-biphenyl]-4-yl)-2,3,9-trimethyl-6H-thieno[3,2-f][1,2,4]triazolo[4,3-a][1,4]diazepin-6-yl]acetate] | 9.64
0.59 nM | Cc1cc(C(=O)NCc2ccc(S(=O)(=O)Nc3ccc(C)c4c(C#N)c[nH]c34)cc2)ccc1-c1ccc(C2=N[C@@H](CC(=O)OC(C)(C)C)c3nnc(C)n3-c3sc(C)c(C)c32)cc1 [Example Compound 144, t-butyl [(6S)-4-{4′-[({4-[(3-cyano-4-methyl-1H-indol-7-yl)sulfamoyl]phenyl}methyl)carbamoyl]-2′-methyl[1,1′-biphenyl]-4-yl}-2,3,9-trimethyl-6H-thieno[3,2-f][1,2,4]triazolo[4,3-a][1,4]diazepin-6-yl]acetate] | 8.92
0.063 nM | CCc1ccc(NS(=O)(=O)c2ccc(CCNC(=O)c3ccc(-c4ccc(C5=N[C@@H](CC(=O)OC)c6nnc(C)n6-c6sc(C)c(C)c65)cc4)cn3)cc2)c2[nH]cc(C#N)c12 [Example 110, methyl [(6S)-4-(4-{6-[(2-{4-[(3-cyano-4-ethyl-1H-indol-7-yl)sulfamoyl]phenyl}ethyl)carbamoyl]pyridin-3-yl}phenyl)-2,3,9-trimethyl-6H-thieno[3,2-f][1,2,4]triazolo[4,3-a][1,4]diazepin-6-yl]acetate] | 9.55
0.098 nM | COC(=O)C[C@@H]1N=C(c2ccc(-c3cc(C)c(C(=O)N[C@H](C)c4ccc(S(=O)(=O)Nc5ccc(C)c6c(C#N)c[nH]c56)cc4)cc3F)cc2)c2c(sc(C)c2C)-n2c(C)nnc21 [Example 98, methyl [(6S)-4-(4′-{[(1R)-1-{4-[(3-cyano-4-methyl-1H-indol-7-yl)sulfamoyl]phenyl}ethyl]carbamoyl}-2′-fluoro-5′-methyl[1,1′-biphenyl]-4-yl)-2,3,9-trimethyl-6H-thieno[3,2-f][1,2,4]triazolo[4,3-a][1,4]diazepin-6-yl]acetate] | 9.66
0.28 nM | CCc1ccc(NS(=O)(=O)c2ccc(CNC(=O)c3ccc(-c4ccc(C5=N[C@@H](CC(=O)OC)c6nnc(C)n6-c6sc(C)c(C)c65)cc4)cc3C)cc2)c2[nH]cc(C#N)c12 [Example Compound 114, methyl [(6S)-4-{4′-[({4-[(3-cyano-4-ethyl-1H-indol-7-yl)sulfamoyl]phenyl}methyl)carbamoyl]-3′-methyl[1,1′-biphenyl]-4-yl}-2,3,9-trimethyl-6H-thieno[3,2-f][1,2,4]triazolo[4,3-a][1,4]diazepin-6-yl]acetate] | 9.47
0.3 nM | COC(=O)C[C@@H]1N=C(c2ccc(-c3ccc(C(=O)NCCc4ccc(S(=O)(=O)Nc5ccc(C)c6c(C#N)c[nH]c56)cc4)cc3Cl)cc2)c2c(sc(C)c2C)-n2c(C)nnc21 [Example 48, methyl [(6S)-4-{2′-chloro-4′-[(2-{4-[(3-cyano-4-methyl-1H-indol-7-yl)sulfamoyl]phenyl}ethyl)carbamoyl][1,1′-biphenyl]-4-yl}-2,3,9-trimethyl-6H-thieno[3,2-f][1,2,4]triazolo[4,3-a][1,4]diazepin-6-yl]acetate] | 9.31
0.64 nM | COC(=O)C[C@@H]1N=C(c2ccc(-c3ccc4cc(C(=O)NCc5ccc(S(=O)(=O)Nc6ccc(C)c7c(C#N)c[nH]c67)cc5)sc4c3)cc2)c2c(sc(C)c2C)-n2c(C)nnc21 [Example 62, methyl [(6S)-4-(4-{2-[({4-[(3-cyano-4-methyl-1H-indol-7-yl)sulfamoyl]phenyl}methyl)carbamoyl]-1-benzothiophen-6-yl}phenyl)-2,3,9-trimethyl-6H-thieno[3,2-f][1,2,4]triazolo[4,3-a][1,4]diazepin-6-yl]acetate] | 9.01
0.22 nM | COC(=O)C[C@@H]1N=C(c2ccc(-c3ccc(C(=O)NCc4ccc(S(=O)(=O)Nc5ccc(OC)c6c(C#N)c[nH]c56)cc4)cc3)cc2)c2c(sc(C)c2C)-n2c(C)nnc21 [Example 15, methyl [(6S)-4-{4′-[({4-[(3-cyano-4-methoxy-1H-indol-7-yl)sulfamoyl]phenyl}methyl)carbamoyl][1,1′-biphenyl]-4-yl}-2,3,9-trimethyl-6H-thieno[3,2-f][1,2,4]triazolo[4,3-a][1,4]diazepin-6-yl]acetate] | 9.55
0.16 nM | COC(=O)C[C@@H]1N=C(c2ccc(-c3ccc(C(=O)NCc4ccc(S(=O)(=O)Nc5ccc(C)c6c(C#N)c[nH]c56)c(F)c4)cc3)cc2)c2c(sc(C)c2C)-n2c(C)nnc21 [Example 25, methyl [(6S)-4-{4′-[({4-[(3-cyano-4-methyl-1H-indol-7-yl)sulfamoyl]-3-fluorophenyl}methyl)carbamoyl][1,1′-biphenyl]-4-yl}-2,3,9-trimethyl-6H-thieno[3,2-f][1,2,4]triazolo[4,3-a][1,4]diazepin-6-yl]acetate] | 9.62
0.32 nM | Cc1sc2c(c1C)C(c1ccc(-c3ccc(C(=O)NCc4ccc(S(=O)(=O)Nc5ccc(C)c6c(C#N)c[nH]c56)cc4)c(F)c3F)cc1)=N[C@@H](CC(=O)OC(C)(C)C)c1nnc(C)n1-2 [Example Compound 138, t-butyl [(6S)-4-{4′-[({4-[(3-cyano-4-methyl-1H-indol-7-yl)sulfamoyl]phenyl}methyl)carbamoyl]-2′,3′-difluoro[1,1′-biphenyl]-4-yl}-2,3,9-trimethyl-6H-thieno[3,2-f][1,2,4]triazolo[4,3-a][1,4]diazepin-6-yl]acetate] | 9.11
0.25 nM | COC(=O)C[C@@H]1N=C(c2ccc(-c3cc(F)c(C(=O)NCc4ccc(S(=O)(=O)Nc5ccc(C)c6c(C#N)c[nH]c56)cc4)cc3F)cc2)c2c(sc(C)c2C)-n2c(C)nnc21 [Example 82, methyl [(6S)-4-{4′-[({4-[(3-cyano-4-methyl-1H-indol-7-yl)sulfamoyl]phenyl}methyl)carbamoyl]-2′,5′-difluoro[1,1′-biphenyl]-4-yl}-2,3,9-trimethyl-6H-thieno[3,2-f][1,2,4]triazolo[4,3-a][1,4]diazepin-6-yl]acetate] | 9.57
0.16 nM | CCc1ccc(NS(=O)(=O)c2ccc(CNC(=O)c3ccc(-c4ccc(C5=N[C@@H](CC(=O)OC)c6nnc(C)n6-c6sc(C)c(C)c65)cc4)c(C)c3)cc2)c2[nH]cc(C#N)c12 [Example Compound 117, methyl [(6S)-4-{4′-[({4-[(3-cyano-4-ethyl-1H-indol-7-yl)sulfamoyl]phenyl}methyl)carbamoyl]-2′-methyl[1,1′-biphenyl]-4-yl}-2,3,9-trimethyl-6H-thieno[3,2-f][1,2,4]triazolo[4,3-a][1,4]diazepin-6-yl]acetate] | 9.39
5.6 nM | Cc1sc2c(c1C)C(c1ccc(-c3ccc(C(=O)NCc4ccc(S(=O)(=O)Nc5ccc(C)c6c(C#N)c[nH]c56)cc4)cc3)cc1)=N[C@@H](CC(=O)N(C)C)c1nnc(C)n1-2 [Example 38, N-({4-[(3-cyano-4-methyl-1H-indol-7-yl)sulfamoyl]phenyl}methyl)-4′-{(6S)-6-[2-(dimethylamino)-2-oxoethyl]-2,3,9-trimethyl-6H-thieno[3,2-f][1,2,4]triazolo[4,3-a][1,4]diazepin-4-yl}[1,1′-biphenyl]-4-carboxamide] | 8.24
0.13 nM | Cc1sc2c(c1C)C(c1ccc(-c3cnc(C(=O)NCc4ccc(S(=O)(=O)Nc5ccc(C)c6c(C#N)c[nH]c56)cc4)nc3)cc1)=N[C@@H](CC(=O)OC(C)(C)C)c1nnc(C)n1-2 [Example Compound 147, t-butyl [(6S)-4-(4-{2-[({4-[(3-cyano-4-methyl-1H-indol-7-yl)sulfamoyl]phenyl}methyl)carbamoyl]pyrimidin-5-yl}phenyl)-2,3,9-trimethyl-6H-thieno[3,2-f][1,2,4]triazolo[4,3-a][1,4]diazepin-6-yl]acetate] | 9.38
0.036 nM | COC(=O)C[C@@H]1N=C(c2ccc(-c3cnc(C(=O)NCCc4ccc(S(=O)(=O)Nc5ccc(C)c6c(C#N)c[nH]c56)cc4)cn3)cc2)c2c(sc(C)c2C)-n2c(C)nnc21 [Example 102, methyl [(6S)-4-(4-{5-[(2-{4-[(3-cyano-4-methyl-1H-indol-7-yl)sulfamoyl]phenyl}ethyl)carbamoyl]pyrazin-2-yl}phenyl)-2,3,9-trimethyl-6H-thieno[3,2-f][1,2,4]triazolo[4,3-a][1,4]diazepin-6-yl]acetate] | 10.15
0.25 nM | CCc1ccc(NS(=O)(=O)c2ccc([C@@H](C)NC(=O)c3ccc(-c4ccc(C5=N[C@@H](CC(=O)OC(C)(C)C)c6nnc(C)n6-c6sc(C)c(C)c65)cc4)cc3)cc2)c2[nH]cc(C#N)c12 [Example Compound 136, t-butyl [(6S)-4-(4′-{[(1R)-1-{4-[(3-cyano-4-ethyl-1H-indol-7-yl)sulfamoyl]phenyl}ethyl]carbamoyl}[1,1′-biphenyl]-4-yl)-2,3,9-trimethyl-6H-thieno[3,2-f][1,2,4]triazolo[4,3-a][1,4]diazepin-6-yl]acetate] | 9.22
0.064 nM | COC(=O)C[C@@H]1N=C(c2ccc(-c3cc(F)c(C(=O)N[C@H](C)c4ccc(S(=O)(=O)Nc5ccc(C)c6c(C#N)c[nH]c56)cc4)cc3F)cc2)c2c(sc(C)c2C)-n2c(C)nnc21 [Example 97, methyl [(6S)-4-(4′-{[(1R)-1-{4-[(3-cyano-4-methyl-1H-indol-7-yl)sulfamoyl]phenyl}ethyl]carbamoyl}-2′,5′-difluoro[1,1′-biphenyl]-4-yl)-2,3,9-trimethyl-6H-thieno[3,2-f][1,2,4]triazolo[4,3-a][1,4]diazepin-6-yl]acetate] | 9.92
